Results on 28 compounds are retold here after patent US12344610B2, “APOL1 inhibitors and methods of use” (Maze Therapeutics, Inc., priority 2022, dated 2025).

This assay concerns Trypanosoma brucei Lister 427 VSG221 with APOL1 G0 recombinant protein. The assay is described as follows: APOL1 G0 trypanosome cell rescue assay (Example B5). Particulars: geometric mean of at least 2 assay runs, † = single assay run. The assay is classed as cell-based. Summed up:
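Mature APOL1 (residues 28-398, E. coli-expressed, His-tag removed by TEV) was added as a 2 μg/mL solution to T. brucei Lister 427 VSG221 in modified HMI-9 medium at 250 cells/well, with duplicate 11-point 2-fold compound dilutions (0.4% DMSO). After 20 h at 37° C, 5% CO2, viability was read by CellTiter-Glo luminescence.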

Setting [1] is: Trypanosoma brucei, 20 h, read-out: APOL1 G0 Trypanosome Rescue EC50, Trypanosoma brucei Lister 427 VSG221 with APOL1 G0 recombinant protein, 20 hours, CellTiter-Glo.
Setting [2] is: read-out: APOL1 G0 Trypanosome Rescue EC50, Trypanosoma brucei Lister 427 VSG221 with APOL1 G0 recombinant protein, 20 hours, CellTiter-Glo.

Where two headings read alike, the source gives them in different places.

Regarding `CC1(O)CN(c2nccc3cc(OCCN4CCC5(CC4)C(=O)Nc4ccc(Cl)cc45)cnc23)C1` [Compound 306, 5-chloro-1′-(2-{[8-(3-hydroxy-3-methylazetidin-1-yl)-1,7-naphthyridin-3-yl]oxy}ethyl)-1,2-dihydrospiro[indole-3,4′-piperidin]-2-one], under setting [1], the half-maximal effective concentration (EC50) (as a rule, the concentration that produces a half-maximal response) came to 37 nM.
With `CS(=O)(=O)C1CN(C(=O)c2ccc(OCCN3CCC4(CC3)C(=O)Nc3ccc(Cl)cc34)cc2F)C1` [Compound 233, 5-chloro-1′-{2-[3-fluoro-4-(3-methanesulfonyl-azetidine-1-carbonyl)phenoxy]ethyl}-1,2-dihydrospiro[indole-3,4′-piperidin]-2-one], the EC50 under setting [1] stood at 81.7 nM.
As to `CS(=O)(=O)c1ccc(OCCN2CCC3(CC2)C(=O)N(CCO)c2ccc(Br)cc23)cc1` [Compound 24, 5-bromo-1-(2-hydroxyethyl)-1′-[2-(4-methanesulfonylphenoxy)ethyl]-1,2-dihydrospiro[indole-3,4′-piperidin]-2-one], the EC50 under setting [1] was 513 nM.
The same measure, in the same setting: the value for `CS(=O)(=O)c1ccc(OCCN2CCC3(CC2)C(=O)Nc2ccc(Cl)cc23)cc1C(F)F` [Compound 197, 5-chloro-1′-{2-[3-(difluoromethyl)-4-methanesulfonylphenoxy]ethyl}-1,2-dihydrospiro[indole-3,4′-piperidin]-2-one] was 30.3 nM; that for `O=C(c1ccc(OCCN2CCC3(CC2)C(=O)Nc2ccc(Cl)cc23)cc1F)N1CCC1` [Compound 234, 1′-{2-[4-(azetidine-1-carbonyl)-3-fluorophenoxy]ethyl}-5-chloro-1,2-dihydrospiro[indole-3,4′-piperidin]-2-one] was 272 nM.
On the same count and under the same terms, to `CS(=O)(=O)C1CN(c2ncc(OCCN3CCC4(CC3)C(=O)Nc3ccc(Cl)cc34)cn2)C1` [Compound 302, 5-chloro-1′-(2-{[2-(3-methanesulfonylazetidin-1-yl)pyrimidin-5-yl]oxy}ethyl)-1,2-dihydrospiro[indole-3,4′-piperidin]-2-one] belongs 356 nM; to `NC1CN(C(=O)c2ccc(OCCN3CCC4(CC3)C(=O)Nc3ccc(Cl)cc34)cc2F)C1` [Compound 236, 1′-{2-[4-(3-aminoazetidine-1-carbonyl)-3-fluorophenoxy]ethyl}-5-chloro-1,2-dihydrospiro[indole-3,4′-piperidin]-2-one], 766 nM; to `CN(C)C(=O)c1ccc(OCCN2CCC3(CC2)C(=O)Nc2ccc(Cl)cc23)cc1F` [Compound 230, 4-(2-{5-chloro-2-oxo-1,2-dihydrospiro[indole-3,4′-piperidin]-1′-yl}ethoxy)-2-fluoro-N,N-dimethylbenzamide], 427 nM.
For the compound `CNC(=O)C1(c2ccc(OCCN3CCC4(CC3)C(=O)Nc3ccc(C#N)cc34)cc2)COC1` [Compound 255, 3-[4-(2-{5-cyano-2-oxo-1,2-dihydrospiro[indole-3,4′-piperidin]-1′-yl}ethoxy)phenyl]-N-methyloxetane-3-carboxamide], under setting [1], the EC50 came out at 1380 nM.
Take `O=C(c1ccc(OCCN2CCC3(CC2)C(=O)Nc2ccc(Cl)cc23)cc1F)N1CC(O)C1` [Compound 235, 5-chloro-1′-{2-[3-fluoro-4-(3-hydroxyazetidine-1-carbonyl)phenoxy]ethyl}-1,2-dihydrospiro[indole-3,4′-piperidin]-2-one]: the concentration giving a half-maximal response (EC50) under setting [1] worked out at 270 nM.
As to `CN1C(=O)C2(CCN(CCOc3ccc(C4(S(C)(=O)=O)CC(O)C4)cc3)CC2)c2cc(C(F)F)ccc21` (single isomer, unassigned) [Compound 278, 5-(difluoromethyl)-1-methyl-1′-(2-{4-[(cis) or (trans)-3-hydroxy-1-methanesulfonylcyclobutyl]phenoxy}ethyl)-1,2-dihydrospiro[indole-3,4′-piperidin]-2-one], the concentration giving a half-maximal response (EC50) under setting [1] was determined as 114 nM.
For `COCCN1C(=O)C2(CCN(CCOc3ccc(S(C)(=O)=O)cc3)CC2)c2cc(Cl)ccc21` [Compound 20, 5-chloro-1′-[2-(4-methanesulfonylphenoxy)ethyl]-1-(2-methoxyethyl)-1,2-dihydrospiro[indole-3,4′-piperidin]-2-one], under setting [1], the EC50 came to 798 nM.
For `N#Cc1ccc2c(c1)C1(CCN(CCOc3ccc(C(N)=O)c(C(F)F)c3)CC1)C(=O)N2` [Compound 250, 4-(2-{5-cyano-2-oxo-1,2-dihydrospiro[indole-3,4′-piperidin]-1′-yl}ethoxy)-2-(difluoromethyl)benzamide], under setting [1], the EC50 was 445 nM.
With `CS(=O)(=O)c1ccc(OCCN2CCC3(CC2)C(=O)N(CCO)c2ccc(Cl)cc23)cc1` [Compound 18, 5-chloro-1-(2-hydroxyethyl)-1′-[2-(4-methanesulfonylphenoxy)ethyl]-1,2-dihydrospiro[indole-3,4′-piperidin]-2-one], under setting [1], the EC50 worked out at 690 nM.
The same measure, in the same setting: the value for `O=C1Nc2ccc(Cl)cc2C12CCN(CCOc1ccc3c(c1)CCS3(=O)=O)CC2` [Compound 196, 5-(2-{5-chloro-2-oxo-1,2-dihydrospiro[indole-3,4′-piperidin]-1′-yl}ethoxy)-2,3-dihydro-1λ^6-benzothiophene-1,1-dione] was 160 nM; that for `COCCN1C(=O)C2(CCN(CCOc3ccc(S(C)(=O)=O)cc3)CC2)c2cc(C#N)ccc21` [Compound 25, 1′-[2-(4-methanesulfonylphenoxy)ethyl]-1-(2-methoxyethyl)-2-oxo-1,2-dihydrospiro[indole-3,4′-piperidine]-5-carbonitrile] was > 4000 nM; that for `CN1C(=O)C2(CCN(CCOc3cc(F)c(C(=O)N4CCS(=O)(=O)CC4)c(F)c3)CC2)c2cc(C#N)ccc21` [Compound 260, 1′-{2-[4-(1,1-dioxo-1λ^6-thiomorpholine-4-carbonyl)-3,5-difluorophenoxy]ethyl}-1-methyl-2-oxo-1,2-dihydrospiro[indole-3,4′-piperidine]-5-carbonitrile] was 274 nM.
Consider `CC(O)c1ncc(OCCN2CCC3(CC2)C(=O)Nc2ccc(C(F)F)cc23)cc1C(F)(F)F` (single isomer, unassigned) [Compound 288, 5-(difluoromethyl)-1′-[2-({6-[(1R) or (1S)-1-hydroxyethyl]-5-(trifluoromethyl)pyridin-3-yl}oxy)ethyl]-1,2-dihydrospiro[indole-3,4′-piperidin]-2-one], for which the EC50 under setting [2] is 26.2 nM.
For `CN(C)C(=O)C1(S(=O)(=O)c2ccc(OCCN3CCC4(CC3)C(=O)Nc3ccc(Cl)cc34)cc2)CC1` [Compound 227, 1-[4-(2-{5-chloro-2-oxo-1,2-dihydrospiro[indole-3,4′-piperidin]-1′-yl}ethoxy)benzenesulfonyl]-N,N-dimethylcyclopropane-1-carboxamide], the EC50 under setting [1] was 142 nM.
`CC(O)c1ncc(OCCN2CCC3(CC2)C(=O)Nc2ccc(Cl)cc23)cn1` (single isomer, unassigned) [Compound 286, 5-chloro-1′-[2-({2-[(1R) or (1S)-1-hydroxyethyl]pyrimidin-5-yl}oxy)ethyl]-1,2-dihydrospiro[indole-3,4′-piperidin]-2-one]: the half-maximal effective concentration (EC50) under setting [2] was 505 nM.
Consider `O=C1Nc2ccc(Cl)cc2C12CCN(CCOc1ccc(S(=O)(=O)C3(C(=O)N4CCC4)CC3)cc1)CC2` [Compound 228, 1′-[2-(4-{[1-(azetidine-1-carbonyl)cyclopropyl]sulfonyl}phenoxy)ethyl]-5-chloro-1,2-dihydrospiro[indole-3,4′-piperidin]-2-one], for which the EC50 under setting [1] was 196 nM.
Turning to `C[C@@H](COc1ccc(S(C)(=O)=O)c(C(F)F)c1)N1CCC2(CC1)C(=O)Nc1ccc(Cl)cc12` (single isomer, unassigned) [Compound 210], the EC50 under setting [1] stood at 63.8 nM.
Regarding `O=C1Nc2ccc(Cl)cc2C12CCN(CCOc1ccc(S(=O)(=O)CCO)cc1)CC2` [Compound 198, 5-chloro-1′-{2-[4-(2-hydroxyethanesulfonyl)phenoxy)ethyl}-1,2-dihydrospiro[indole-3,4′-piperidin]-2-one], the EC50 under setting [1] came out at 107 nM.
As to `CS(=O)(=O)c1ccc(OCCN2CCC3(CC2)C(=O)Nc2ccc(C#N)cc23)cc1C(F)CF` (single isomer, unassigned) [Compound 221, 1′-(2-{3-[(1S or 1R)-1,2-difluoroethyl]-4-methanesulfonyl-phenoxy}ethyl)-2-oxo-1,2-dihydrospiro [indole-3,4′-piperidine]-5-carbonitrile], the EC50 under setting [1] came to 75 nM.
On the same count and under the same terms, the value for `C[C@]1(O)C[C@H](N2C(=O)CCc3cc(OCCN4CCC5(CC4)C(=O)Nc4ccc(Cl)cc45)cnc32)C1` (single isomer, unassigned) [Compound 307, 5-chloro-1′-[2-({7-oxo-8-[(trans)-3-hydroxy-3-methylcyclobutyl]-5,6,7,8-tetrahydro-1,8-naphthyridin-3-yl}oxy)ethyl]-1,2-dihydrospiro[indole-3,4′-piperidin]-2-one] was 65.7 nM.
Still for that read-out and setting: the value for `CS(=O)(=O)C1(c2ccc(OCCN3CCC4(CC3)C(=O)Nc3ccc(Cl)cc34)cc2)COC1` [Compound 195, 5-chloro-1′-{2-[4-(3-methanesulfonyloxetan-3-yl)phenoxy]ethyl}-1,2-dihydrospiro[indole-3,4′-piperidin]-2-one] was 48.2 nM; that for `CNC(=O)C1(S(=O)(=O)c2ccc(OCCN3CCC4(CC3)C(=O)Nc3ccc(Cl)cc34)cc2)CC1` [Compound 226, 1-[4-(2-{5-chloro-2-oxo-1,2-dihydrospiro[indole-3,4′-piperidin]-1′-yl}ethoxy)benzenesulfonyl]-N-methylcyclopropane-1-carboxamide] was 80 nM.
On to `CC(O)c1ncc(OCCN2CCC3(CC2)C(=O)Nc2ccc(Cl)cc23)cc1C(F)(F)F` (single isomer, unassigned) [Compound 292, 5-chloro-1′-[2-({6-[(1S) or (1R)-1-hydroxyethyl]-5-(trifluoromethyl)pyridin-3-yl}oxy)ethyl]-1,2-dihydrospiro[indole-3,4′-piperidin]-2-one], for which the EC50 under setting [2] amounted to 31.6 nM.
